The values that follow are results of earlier work, collected in US7943615B2, “Fused aminopiperidines as dipeptidyl peptidase-4 inhibitors for the treatment or prevention of diabetes” (Merck Sharp & Dohme Corp., priority 2005, dated 2011).

For series [1], the system named is cardiac allograft. The conditions noted are these: rats; doubled from day 7.
In series [2] the test system is hematopoiesis. As to conditions: mouse, cyclophosphamide-induced neutropenia.
Series [3] addresses T1, DPP-4 (Homo sapiens, UniProt P27487).
T1 construct: GRF is rapidly degraded in plasma to GRF[344]

T1 sequence (P27487 whole entry, species assumed): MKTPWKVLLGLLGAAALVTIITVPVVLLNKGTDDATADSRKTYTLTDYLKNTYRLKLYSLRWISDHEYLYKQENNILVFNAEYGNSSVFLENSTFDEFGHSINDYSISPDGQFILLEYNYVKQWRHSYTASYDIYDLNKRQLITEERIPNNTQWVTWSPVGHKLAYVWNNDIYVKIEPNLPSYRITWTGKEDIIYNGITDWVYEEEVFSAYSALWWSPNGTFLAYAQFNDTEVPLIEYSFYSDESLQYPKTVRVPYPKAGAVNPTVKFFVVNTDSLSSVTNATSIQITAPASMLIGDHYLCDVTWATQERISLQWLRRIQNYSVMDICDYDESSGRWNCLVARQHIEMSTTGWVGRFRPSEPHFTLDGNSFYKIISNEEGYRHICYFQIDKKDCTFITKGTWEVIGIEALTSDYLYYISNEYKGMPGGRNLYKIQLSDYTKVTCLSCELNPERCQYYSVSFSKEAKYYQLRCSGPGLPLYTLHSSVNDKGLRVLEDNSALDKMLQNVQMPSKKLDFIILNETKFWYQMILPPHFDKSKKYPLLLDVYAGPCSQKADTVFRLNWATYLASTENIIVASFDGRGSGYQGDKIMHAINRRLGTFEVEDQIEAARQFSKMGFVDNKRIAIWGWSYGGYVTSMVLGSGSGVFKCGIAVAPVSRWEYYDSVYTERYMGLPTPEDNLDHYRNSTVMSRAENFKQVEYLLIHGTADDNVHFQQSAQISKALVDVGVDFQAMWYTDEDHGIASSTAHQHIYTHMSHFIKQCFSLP

As to `CC(C)N1CCC(c2ccccc2)(c2ccccc2)CC1` [Prodipine, Pro-Pro-diphenyl-phosphonate], the cardiac allograft survival in series [1] is 14 day.

With `CC(C)[C@H](N)C(=O)N1CCC[C@H]1B(O)O` [Val-Boro-Pro], the effect on hematopoiesis result in series [2] is “stimulated hematopoiesis”.

For the molecule diprotin A, in series [3], the “effect on degradation of GRF in plasma” value was “prevented”.
